Results from the Biogen ADME set (Fang et al. 2023).
Values after ≈ are worked out from the molar mass of the structure shown.

Conditions: for aqueous solubility: pH 6.8

| MDR1-MDCK efflux ratio | intrinsic clearance, human liver microsomes [mL/min/kg] | intrinsic clearance, rat liver microsomes [mL/min/kg] | aqueous solubility [µg/mL] | fraction unbound, human plasma | fraction unbound, rat plasma | SMILES |
| --- | --- | --- | --- | --- | --- | --- |
| 0.69 | 27.6 | 600 | 42.1 (≈ 161 µM) | – | – | O=C(NCCc1ccc2c(c1)OCO2)C1CCCC1 |
| 1.47 | ≤ 4.74 | 20 | 74.5 (≈ 216 µM) | – | – | CC(=O)N1CCN(C(=O)c2ccc(-c3ccc(F)cc3)cc2F)CC1 |
| 1.57 | ≤ 4.74 | 112 | 36.7 (≈ 143 µM) | – | – | Cc1nn(CCC#N)c(C)c1Oc1ccccc1O |
| 4.4 | 44.2 | 328 | 28.9 (≈ 94.5 µM) | – | – | Cc1cc(N(C)Cc2ccc(N)nc2)nc(-c2ccncc2)n1 |
| – | 25.9 | 211 | 55.6 (≈ 172 µM) | – | – | COc1ccc(CN(C)c2ncncc2Br)cc1O |
| 1.08 | ≤ 4.74 | 23.2 | 45.2 (≈ 186 µM) | – | – | O=C(NCC1CC1)c1ccc(-n2ccnc2)nc1 |
| 0.659 | 21.3 | – | – | 0.312 | – | CNc1nc(C)cc(C(=O)Nc2ccc3[nH]ncc3c2)n1 |
| – | 168 | 640 | 7.28 (≈ 30 µM) | – | – | CC(C)CCNC(=O)c1ccc2ccccc2n1 |
| 0.562 | 109 | 605 | – | – | – | COc1cccc(C(=O)Nc2nccs2)c1 |
| 4.61 | ≤ 4.74 | 21.7 | 31.9 (≈ 126 µM) | – | – | Cc1nc(CCN2C(=O)NC(C)(C)C2=O)cs1 |
| 1.04 | ≤ 4.74 | 30 | 70.8 (≈ 239 µM) | – | – | O=C(NCc1ccc(F)cc1)c1ccc(-n2ccnc2)nc1 |
| 0.653 | 246 | 3180 | – | – | – | CN(CCSc1ccc2nnc(C(F)F)n2n1)Cc1ccccc1 |
| 11.2 | 73.7 | 512 | – | – | – | O=C(CCCC(=O)N1CCN(c2nsc3ccccc23)CC1)Nc1nccs1 |
| 23.4 | 64.5 | 647 | – | – | – | CCc1c(C)nn(CCNC(=O)CCc2cnccn2)c1C |
| 6.32 | 13.9 | 407 | 34.4 (≈ 105 µM) | – | – | Cc1cc2occ(CC(=O)NC3CCN(C)CC3)c2cc1C(C)C |
| 9.7 | 68.3 | 707 | 22.1 (≈ 49 µM) | – | – | COc1cc2c(cc1OC)CN(C(=O)C1CCCN(S(=O)(=O)c3cccs3)C1)CC2 (stereo unspecified) |
| 0.528 | 299 | 657 | 3.65 (≈ 16.6 µM) | – | – | N#Cc1cccc(-c2ccc3[nH]ccc3c2)n1 |
| 0.646 | 35.7 | 1530 | 23.6 (≈ 95.1 µM) | – | – | Cc1nnc(N2CCCSCC2)c(C#N)c1C |
| 0.548 | 8.03 | 130 | 38.1 (≈ 162 µM) | – | – | CN1CCN(CCOc2ccccc2N)CC1 |
| – | – | – | 5.6 (≈ 21.2 µM) | – | – | Cc1ccc(NC(=O)Cc2c[nH]c3ccccc23)cc1 |

| MDR1-MDCK efflux ratio | intrinsic clearance, human liver microsomes [mL/min/kg] | intrinsic clearance, rat liver microsomes [mL/min/kg] | aqueous solubility [µg/mL] | fraction unbound, human plasma | fraction unbound, rat plasma | SMILES |
| --- | --- | --- | --- | --- | --- | --- |
| 1.27 | ≤ 4.74 | 100 | – | – | – | CS(=O)(=O)Nc1ccccc1-c1ccncc1 |
| 1.1 | 36 | 2890 | 37.5 (≈ 114 µM) | – | – | Cc1nc(C)c2c(C)c(C(=O)N(C)Cc3ccc(C)o3)sc2n1 |
| – | 276 | 285 | 7.52 (≈ 30.3 µM) | – | – | Cc1ccc(NC(=O)c2cc(F)cc(F)c2)nc1 |
| 0.519 | – | – | 0.24 (≈ 0.545 µM) | – | – | NC(=O)c1ccc(N2CCCCC2)c(NC(=O)c2ncoc2-c2ccc3ccccc3c2)c1 |
| 23.9 | ≤ 4.74 | ≤ 10.7 | – | – | – | CCCc1cc(O)nc(SCC(=O)N2CCN(C)CC2)n1 |
| 0.577 | 49.7 | 69.8 | – | – | – | CCNc1nc(-c2cccnc2)nc(C)c1C |
| – | ≤ 4.74 | 56.5 | – | – | – | CCCn1cc(CNc2ncccn2)cn1 |
| 8.58 | 6.58 | 265 | – | – | – | Cc1nn(CCNS(=O)(=O)N2CCOCC2)c(C)c1C |
| 1.05 | ≤ 4.74 | ≤ 10.7 | 50.5 (≈ 217 µM) | – | – | CNC(=O)CCc1nc(-c2ccccn2)no1 |
| – | 53.7 | 892 | 22.5 (≈ 52.1 µM) | – | – | COc1ccc(CCn2c(C)c3c(=O)n(-c4nc5ccccc5s4)[nH]c3cc2=O)cc1 |
| 1.14 | 21 | 146 | – | – | – | CCCn1cc(CN2CCC(c3nc(N(C)C)no3)CC2)cn1 |
| 1.2 | ≤ 4.74 | ≤ 10.7 | 61.5 (≈ 290 µM) | – | – | CC(C)CC(=O)NCC(=O)N1CCCC1 |
| – | – | – | 2.24 (≈ 6.76 µM) | – | – | C=CCN(c1ccc(C(=O)OC)cc1)S(=O)(=O)c1ccccc1 |
| – | – | – | 0.4 (≈ 1.07 µM) | – | – | CCn1c(=O)c2cc(OC)c(OC)cc2n(Cc2ccc(Cl)cc2)c1=O |
| 0.593 | 7.18 | ≤ 10.7 | 32.2 (≈ 140 µM) | – | – | CCn1cc(NC(=O)c2ccccc2C)cn1 |
| 14.4 | 33.6 | 2410 | – | – | – | Cc1[nH]nc(CCC(=O)NCCCOC2CCCC2)c1C |
| 0.72 | 92.8 | 1360 | 42.3 (≈ 124 µM) | – | – | CCCOc1ccccc1C(=O)N1CC(Oc2cccc(OC)c2)C1 |
| – | – | – | 29.9 (≈ 61.6 µM) | – | – | Nc1nc(NCCNc2ncc(-c3ncc[nH]3)c(-c3ccc(Cl)cc3Cl)n2)ccc1[N+](=O)[O-] |
| 1.39 | ≤ 4.74 | 34.4 | 35.3 (≈ 134 µM) | – | – | CCCC(=O)Nc1cnc(N2CCN(C)CC2)nc1 |
| 15.3 | ≤ 4.74 | 534 | – | – | – | CCCn1cnnc1CN(C)Cc1cc(C(C)C)on1 |

| MDR1-MDCK efflux ratio | intrinsic clearance, human liver microsomes [mL/min/kg] | intrinsic clearance, rat liver microsomes [mL/min/kg] | aqueous solubility [µg/mL] | fraction unbound, human plasma | fraction unbound, rat plasma | SMILES |
| --- | --- | --- | --- | --- | --- | --- |
| 2.1 | 11.2 | 270 | 38.6 (≈ 130 µM) | – | – | Cc1cc(C)cc(C(=O)Nc2nn(C(C)(C)C)cc2C#N)c1 |
| 42.6 | 24.4 | 166 | – | – | – | CC(=O)N[C@H]1CC2(CCN(C(=O)COc3cc(C)c(Cl)c(C)c3)CC2)OC[C@]1(C)O |
| – | ≤ 4.74 | 47.9 | – | – | – | O=c1n(Cc2ccccn2)nc2n1-c1cc(Cl)ccc1C1=NCCN12 |
| – | 8.14 | 155 | – | – | – | CCCc1cnc(C)nc1N(C)CCC(C)(C)O |
| 1.12 | 18 | 285 | – | – | – | COC1(c2nc(Cc3ccccc3)no2)CCN(Cc2cnc(C)o2)CC1 |
| 6.04 | 8.08 | 158 | – | – | – | Cc1nc(NCCN2C(=O)CCC2=O)c2c(C)csc2n1 |
| 0.72 | – | – | 0.3 (≈ 0.812 µM) | – | – | Cc1cc(NC(=O)N2Cc3cc4c(cc3C3(CCCC3)C2)OCCO4)no1 |
| 2.86 | 302 | 1390 | 3.37 (≈ 9.2 µM) | – | – | Cc1ccc(C)c(OCC(=O)N2CCC(C(=O)Nc3ccccc3)CC2)c1 |
| 123 | 28.7 | 535 | – | 0.00121 | 0.00114 | COc1ccc(Cl)cc1C(=O)NCCc1ccc(S(=O)(=O)NC(=O)NC2CCCCC2)cc1 |
| 8.01 | 14.6 | 90.4 | 12.9 (≈ 29.6 µM) | – | – | O=c1ncn2nc(Sc3ccc(F)cc3F)ccc2c1-c1c(Cl)cccc1Cl |
| 0.559 | 237 | 556 | – | – | – | CCOc1cccc(-c2cccc(N)n2)c1 |
| 55.7 | 20.4 | 815 | – | – | – | Cc1ccccc1CCNC(=O)N(Cc1cccnc1)C1CCN(C)CC1 |
| 3.67 | 9.64 | 192 | 47.4 (≈ 147 µM) | – | – | CS(=O)(=O)CCNC(=O)N1CC2(CCCC2)c2ccccc21 |
| 7.46 | 43.2 | 127 | – | – | – | CCCNC(=O)C1(NCc2cncnc2)CCCCC1 |
| 1.2 | 36.6 | 76.6 | – | – | – | COCC(=O)Nc1ccc(NC(=O)Cc2cc(C)ccc2C)cc1 |
| 0.641 | 40.5 | 2070 | – | – | – | c1ccc(-c2ncc(CNc3ncccn3)s2)nc1 |
| 0.743 | ≤ 4.74 | 38.2 | 44.8 (≈ 198 µM) | – | – | N#CCSCC(=O)NC1CCCCCC1 |
| 2.69 | 13 | 83 | 39.6 (≈ 116 µM) | – | – | O=C(NCCN1C(=O)CSC1=O)c1cc(Cl)c2c(c1)OCO2 |
| 1.58 | 21.7 | 463 | 50.8 (≈ 175 µM) | – | – | CN(CC(=O)NC1CC1)C(=O)C1C2CC3CC(C2)CC1C3 (stereo unspecified) |
